# Reference: patent US20230097157A1, “Bicyclic Pyridin-2-one and pyrimidin-4-one Derivatives Useful As a Factor XIa Inhibitors” (Janssen Pharmaceutica NV, priority 2021, published 2023)
# Where two headings read alike, the source gives them in different places.
# Experiments:
# [1] = molecular target: Factor XIa (Homo sapiens, UniProt P03951); test: Factor XIa inhibition assay (FLINT) utilizing a fluorophore-quencher pair peptide substrate 5Fam-[…]-K5Tamra; assay type: biochemical; settings: kinetic (KIN) reads, read-out: FXIa KIN Inh IC50
# Sequence of Factor XIa (P03951 388-625 limits assumed): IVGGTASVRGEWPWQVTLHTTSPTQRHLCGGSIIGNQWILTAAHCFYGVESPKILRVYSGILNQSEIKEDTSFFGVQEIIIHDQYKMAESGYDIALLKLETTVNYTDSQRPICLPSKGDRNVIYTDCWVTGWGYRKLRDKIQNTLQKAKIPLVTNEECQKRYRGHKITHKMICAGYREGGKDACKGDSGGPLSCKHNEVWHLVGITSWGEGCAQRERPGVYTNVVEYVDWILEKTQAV
# Sequence of Factor XIa (P03951 19-387 partner limits assumed): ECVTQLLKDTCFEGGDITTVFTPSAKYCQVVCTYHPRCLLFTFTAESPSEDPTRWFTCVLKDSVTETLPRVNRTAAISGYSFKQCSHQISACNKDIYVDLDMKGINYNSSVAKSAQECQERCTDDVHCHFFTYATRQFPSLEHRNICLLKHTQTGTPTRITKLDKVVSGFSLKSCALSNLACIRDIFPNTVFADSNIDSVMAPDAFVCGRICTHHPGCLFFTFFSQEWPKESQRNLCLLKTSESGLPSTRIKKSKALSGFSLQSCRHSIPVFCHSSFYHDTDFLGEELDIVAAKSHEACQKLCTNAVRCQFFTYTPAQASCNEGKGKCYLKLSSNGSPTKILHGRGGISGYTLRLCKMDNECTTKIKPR
# How it was run: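 Compounds were tested as 11-point 3-fold dilutions from 100 nM (2% DMSO). They were preincubated 30 min with FXIa in 50 mM Tris pH 7.5, 5 mM CaCl2, then 15 μM fluorophore-quencher peptide was added. Cleavage was followed at 485/520 nm over 30 min, and IC50 was derived by 4-parameter logistic fit.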
# [2] = molecular target: human plasma kallikrein (Homo sapiens, UniProt P03952); test: Kallikrein inhibition assay (FLINT) utilizing a quenched AMC peptide substrate Z-Gly-Pro-Arg-AMC; assay type: biochemical; settings: kinetic (KIN) reads, read-out: Kallikrein KIN Inh IC50
# Sequence of human plasma kallikrein (P03952 391-638 limits assumed): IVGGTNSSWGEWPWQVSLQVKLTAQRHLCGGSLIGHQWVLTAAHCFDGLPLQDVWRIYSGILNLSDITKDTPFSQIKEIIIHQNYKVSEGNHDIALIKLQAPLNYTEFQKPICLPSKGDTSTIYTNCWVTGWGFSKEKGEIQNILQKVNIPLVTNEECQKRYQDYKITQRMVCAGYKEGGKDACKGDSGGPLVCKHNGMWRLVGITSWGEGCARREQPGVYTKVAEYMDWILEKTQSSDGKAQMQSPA
# Sequence of human plasma kallikrein (P03952 20-390 partner limits assumed): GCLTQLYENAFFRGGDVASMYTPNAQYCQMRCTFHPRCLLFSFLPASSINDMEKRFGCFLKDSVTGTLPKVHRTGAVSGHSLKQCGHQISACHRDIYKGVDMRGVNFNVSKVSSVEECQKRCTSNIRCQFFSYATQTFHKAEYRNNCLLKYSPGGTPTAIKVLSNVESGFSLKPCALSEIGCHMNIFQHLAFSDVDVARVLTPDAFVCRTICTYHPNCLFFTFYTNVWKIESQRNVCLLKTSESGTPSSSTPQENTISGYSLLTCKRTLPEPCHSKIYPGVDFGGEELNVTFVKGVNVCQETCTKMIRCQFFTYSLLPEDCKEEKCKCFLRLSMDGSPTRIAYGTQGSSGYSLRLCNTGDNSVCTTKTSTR
# How it was run: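 IC50 from a 4-parameter logistic fit of % inhibition from 11 concentrations (3-fold, top 1 μM, 2% DMSO). Compound pre-incubated 30 min with 2 nM enzyme in Tris pH 7.5, NaCl, CaCl2, BSA, CHAPS, then 50 μM AMC peptide substrate added. Fluorescence (340/440 nm) followed every 5 min for 30 min at room temperature.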
SMILES,IC50 ([1]; unit μM) [µM],IC50 ([2]; unit μM) [µM],IC50 ([1]; values in nM) [µM],IC50 ([2]; values in nM) [µM]
"C[C@H]1C[C@@H](c2ncc(-c3ccc(N)nc3F)[nH]2)n2c1cc(-c1c(-n3cnnn3)ccc(Cl)c1F)cc2=O [Example 67, (1S,3S)-3-(5-(6-Amino-2-fluoropyridin-3-yl)-1H-imidazol-2-yl)-7-(3-chloro-2-fluoro-6-(1H-tetrazol-1-yl)phenyl)-1-methyl-2,3-dihydroindolizin-5(1H)-one]",–,–,0.0004,0.0206
"Cc1cc(-c2cnc([C@H]3C[C@H](C)c4cc(-c5c(-n6cnnn6)ccc(Cl)c5F)cc(=O)n43)[nH]2)ccn1 (stereo in doubt) [Example 42, (1*S,3*R)-7-(3-Chloro-2-fluoro-6-(1H-tetrazol-1-yl)phenyl)-1-methyl-3-(5-(2-methylpyridin-4-yl)-1H-imidazol-2-yl)-2,3-dihydroindolizin-5(1H)-one]",–,–,0.0033,0.033
"C[C@H]1C[C@@H](c2ncc(-c3ccnc(N)c3F)[nH]2)n2c1nc(-c1c(-n3cnnn3)ccc(Cl)c1F)cc2=O (relative stereo) [Example 88, (6*S,8*S)-6-(5-(2-Amino-3-fluoropyridin-4-yl)-1H-imidazol-2-yl)-2-(3-chloro-2-fluoro-6-(1H-tetrazol-1-yl)phenyl)-8-methyl-7,8-dihydropyrrolo[1,2-a]pyrimidin-4(6H)-one]",–,–,0.0026,0.0145
"C[C@H]1C[C@@H](c2ncc(-c3ccc(=O)[nH]c3)[nH]2)n2c1cc(-c1c(-n3cnnn3)ccc(Cl)c1F)cc2=O [Example 16, (1S,3S)-7-(3-Chloro-2-fluoro-6-(1H-tetrazol-1-yl)phenyl)-1-methyl-3-(5-(6-oxo-1,6-dihydropyridin-3-yl)-1H-imidazol-2-yl)-2,3-dihydroindolizin-5(1H)-one]",–,–,0.0781,0.447
"C[C@H]1C[C@@H](c2cnc(-c3ccc(N)nc3F)[nH]2)n2c1cc(-c1c(-n3cnnn3)ccc(Cl)c1F)cc2=O (stereo in doubt) [Example 54, (1 S*,3S*)-3-(2-(6-Amino-2-fluoropyridin-3-yl)-1H-imidazol-5-yl)-7-(3-chloro-2-fluoro-6-(1H-tetrazol-1-yl)phenyl)-1-methyl-2,3-dihydroindolizin-5(1H)-one]",–,> 10,0.43,–
"Cc1c(-c2cnc([C@@H]3C[C@H](C)c4cc(-c5c(-n6cnnn6)ccc(Cl)c5F)cc(=O)n43)[nH]2)ccnc1C#N (relative stereo) [Example 33, 4-(2-((1S*,3S*)-7-(3-Chloro-2-fluoro-6-(1H-tetrazol-1-yl)phenyl)-1-methyl-5-oxo-1,2,3,5-tetrahydroindolizin-3-yl)-1H-imidazol-5-yl)-3-methylpicolinonitrile]",–,–,0.0068,0.152
"Cc1cc(-c2cnc([C@@H]3C[C@@H](C)c4cc(-c5c(-n6cnnn6)ccc(Cl)c5F)cc(=O)n43)[nH]2)ccn1 (stereo in doubt) [Example 41, (1*R,3*S)-7-(3-Chloro-2-fluoro-6-(1H-tetrazol-1-yl)phenyl)-1-methyl-3-(5-(2-methylpyridin-4-yl)-1H-imidazol-2-yl)-2,3-dihydroindolizin-5(1H)-one]",–,2.2,0.346,–

# Second part, the molecule after the results:
IC50 ([1]; unit μM) [µM],IC50 ([2]; unit μM) [µM],IC50 ([1]; values in nM) [µM],IC50 ([2]; values in nM) [µM],SMILES
> 10,> 10,–,–,"Cc1nc(N)sc1-c1cnc([C@H]2CC3(CC3)c3nc(-c4c(-n5cnnn5)ccc(Cl)c4F)cc(=O)n32)[nH]1 [Example 132, (R)-6′-(5-(2-Amino-4-methylthiazol-5-yl)-1H-imidazol-2-yl)-2′-(3-chloro-2-fluoro-6-(1H-tetrazol-1-yl)phenyl)-6′,7′-dihydro-4′H-spiro[cyclopropane-1,8′-pyrrolo[1,2-a]pyrimidin]-4′-one]"
–,–,0.0016,0.0078,"C[C@@H]1C[C@H](c2ncc(-c3ccc4c(c3)CC(=O)N4)[nH]2)n2c1nc(-c1c(-n3cnnn3)ccc(Cl)c1F)cc2=O (stereo in doubt) [Example 112, (6*R,8*R)-2-(3-Chloro-2-fluoro-6-(1H-tetrazol-1-yl)phenyl)-8-methyl-6-(5-(2-oxoindolin-5-yl)-1H-imidazol-2-yl)-7,8-dihydropyrrolo[1,2-a]pyrimidin-4(6H)-one]"
–,–,0.0007,0.0168,"C[C@H]1C[C@@H](c2ncc(-c3ccc4c(c3)CC(=O)N4)[nH]2)n2c1nc(-c1c(-n3cnnn3)ccc(Cl)c1F)cc2=O (stereo in doubt) [Example 113, (6*S,8*S)-2-(3-Chloro-2-fluoro-6-(1H-tetrazol-1-yl)phenyl)-8-methyl-6-(5-(2-oxoindolin-5-yl)-1H-imidazol-2-yl)-7,8-dihydropyrrolo[1,2-a]pyrimidin-4(6H)-one]"
> 10,> 10,–,–,"C[C@@H]1C[C@@H](c2ncc(-c3ccnn3C)[nH]2)n2c1nc(-c1c(-n3cnnn3)ccc(Cl)c1F)cc2=O (relative stereo) [Example 145, (6S*,8R*)-2-(3-Chloro-2-fluoro-6-(1H-tetrazol-1-yl)phenyl)-8-methyl-6-(5-(1-methyl-1H-pyrazol-5-yl)-1H-imidazol-2-yl)-7,8-dihydropyrrolo[1,2-a]pyrimidin-4(6H)-one]"
